Data: patent publication US20240358025A1, “INSECT, BACTERIAL, AND/OR FUNGAL CONTROL COMPOSITION” (priority 2021, published 2024)

Key:
Escherichia coli = assay: E. coli growth inhibition by individual components and combinations (CFU count); type: cell-based; settings: for CFUs / CFUs/mL: CFU after 24 hours; for reduction of growth of E. coli (in words): component alone
Experimental: (§1) Escherichia coli was grown in the presence of each component or combinations to determine the inhibitory potential. […] The appropriate amount of each component was added to 5 mL of LB media, and each culture was inoculated with 50 μL of a 12 hour old culture of E. coli. The cultures were grown for 12 hours at 37° C. with shaking at 225 rpm before being serial diluted and plated onto solid LB agar plates (5 μL per plate) in triplicate. Plates were incubated for 24 hours at 37° C., and then colonies were counted to determine the inhibitory potential.

[1] = system: Candida albicans ATCC 10231; assay: Inhibition assay of essential oils and pairings in base solution, log reduction and synergy; type: cell-based; settings: log reduction of pairing divided by that of the pure oil named
[2] = system: Pseudomonas aeruginosa ATCC 9027; assay: as above; type: cell-based; settings: pairing Clove + Geraniol; log reduction of pairing divided by that of the pure oil named
Banded crickets [3] = assay: Residual insecticides against banded crickets (surfaces aged 7 DAT); type: in vivo; settings: 0.75 gallons per acre
Experimental: Post-Treatment Arenas: 20 oz. […] A potato cutting was added as a food source. Clean post-treatment arenas were used to contain the test systems after exposure to the test substances.
(§2) The test substances were shaken and then mixed at a rate of 5.324 mL of concentrate per 200 ml of water.
The diluted test substances were adequately shaken prior to applications. A track spraying jig was used to make a linear application. […] This equated to a treatment rate of 0.75 gallons per acre.

E. coli = E. coli growth inhibition, essential oil comparison in the non-essential oil fraction (CFU count); type: cell-based, Escherichia coli; settings: oils in non-essential oil fraction
Experimental: as §1
Combinations of essential oils, each at the concentration indicated in Example 1, were assayed for their inhibitory potential in a similar manner as Example 1.
The essential oils were then tested in the non-essential oil fraction for synergy. […] Also, there was increasing antimicrobial action of the essential oils related to the combination of the oils leading to the highest activity found in the Essential Oil-Ark product.

Banded crickets [4] = assay: Direct spray insecticides against banded crickets; type: in vivo; settings: 0.75 gallons per acre
Experimental: The Test Arenas were used to contain the test systems during the test substance applications.
Post-Treatment Arenas: 20 oz. SOLO cups with mesh lids were used as post-treatment arenas. A potato cutting was added as a food source. Clean post-treatment arenas were used to contain the test systems after exposure to the test substances.
Application Equipment: A compressed air sprayer with a flat fan nozzle, pressurized to 20 PSI was used to make applications.
as §2
The diluted test substances were adequately shaken prior to applications. A track spraying jig was used to make a linear application. A single cartridge containing 10 test systems was placed in the middle of the spray path. […] This equated to a treatment rate of 0.75 gallons per acre.
The observations were made by raising the test arenas and gently blowing air on the test systems to provoke movement, lightly prodding the test systems, or the test arenas were shaken/agitated to provoke test system movement.
The test systems were transferred from the Treatment Arenas into the clean Post-Treatment Arenas 1 hour after the applications.

Compound | CFUs (Escherichia coli) | CFUs/mL (Escherichia coli) | reduction of growth of E. coli (in words) (Escherichia coli) | Synergistic advantage ([1]; pairing Geraniol + Garlic) | Synergistic advantage ([1]; pairing Geraniol + Peppermint) | Synergistic advantage ([1]; pairing Geraniol + Rosemary) | Synergistic advantage ([1]; pairing Geraniol + Thyme) | Synergistic advantage [2] | Average Percent Mortality (Banded crickets [3]; surface aged 7 DAT, 3 DAT) | efficacy as a residual insecticide (in words) (Banded crickets [3]; up to 7 days after treatment) | Avg (E. coli; CFU after 24 hours) | CFUs (E. coli; CFU after 24 hours) | CFUs/mL (E. coli; CFU after 24 hours) | antimicrobial activity (in words) (E. coli) | efficacy as a direct kill insecticide (in words) (Banded crickets [4]) | Average Percent Mortality (Banded crickets [4]; 2 DAT)
C/C=C/C=C/C(=O)[O-].[K+] [Potassium Sorbate] | 13000000 CFUs | 260000000 CFUs/mL | did not substantially reduce growth of E. coli | – | – | – | – | – | – | – | – | – | – | – | – | –
CCCCCCCCCCCCCCCCCC(=O)OCC(O)CO (stereo not drawn) [Glyceryl Monostearate] | 8330000 CFUs | 166600000 CFUs/mL | did not substantially reduce growth of E. coli | – | – | – | – | – | – | – | – | – | – | – | – | –
CC(C)=CCC/C(C)=C/CO [Geraniol] | 2 CFUs | 40 CFUs/mL | – | 120.9% | 103.9% | 103.9% | 103.9% | 106.3% | 10% | did not provide high levels of mortality | 43.333 | 43333 CFUs | 866660 CFUs/mL | highest activity of the essential oils | did not provide high levels of mortality | 33%
